Common to all, as to assay: NCI anticancer screen, dose series, 48 h
Assay [1] relates to MCF7 breast.
The test system of assay [2] is MDA-MB-231 breast.
For assay [3], the system named is DU-145 prostate.
In assay [4] the test system is COLO 205 colon.
Assay [5] relates to CAKI-1 renal.
Assay [6] has as its system UACC-257 melanoma.
Assay [7] relates to A549 NSCLC.
For assay [8], the system named is HS 578T breast.
Assay [9] deals with ACHN renal.
For assay [10], the system named is SK-MEL-28 melanoma.
The test system of assay [11] is OVCAR-4 ovarian.

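Test compounds were applied to cells in 96-well plates for 48 hours at 5 doses. TGI: concentration producing complete growth inhibition.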 Where only a bound is given, the exact number is not on record here.

For `CC(=O)Nc1ccc2c(C)c3c4ccccc4n(C)c3nc2n1`, the TGI is 96.7 µM in assay [1]; 41.2 µM in assay [2]; 90.4 µM in assay [3]; 30.9 µM in assay [4]; above 100 µM in assay [5]; 57.5 µM in [6]. The TGI was 59.8 µM in assay [7], 50.2 µM in [8] and 33.1 µM in [9].
As for `CC(=O)c1ccc2c(c1)oc(=O)n2CCN1CCCCC1`, the TGI in [10], in assay [1], in [2], in assay [3], in [4] and in [5] was above 100 µM each time. Moreover, the TGI in assay [6], in [8] and in assay [9] was above 100 µM each time.
`O=C(Cc1ccccc1)c1ccc2[nH]c(=O)oc2c1`: the TGI in assay [10], in [1], in [2], in [3], in [4] and in assay [5] was above 100 µM in each case. For the same compound, the TGI in assay [6] was above 100 µM; in [8], 22.9 µM; in assay [9] it was above 100 µM.
Consider `O=C(CCCn1ccnc1[N+](=O)[O-])NCCn1ccnc1`, for which the TGI in assay [10], in assay [1], in [2], in assay [3], in assay [4] and in assay [5] was above 100 µM throughout. For the same compound, the TGI in [6], in [7], in assay [8] and in [9] was above 100 µM throughout.
Regarding `O=C(O)CN1CCN(CC(=O)O)CCN(CC(=O)O)CCN(CC(=O)O)CC1`, the TGI in assay [1], in assay [2], in [3], in [4], in [5] and in assay [6] was above 100 µM throughout. The TGI in [7], in [8], in assay [9] and in assay [11] was above 100 µM throughout.
Regarding `CN(C)CCO/N=C1/C=C2CC[C@H]3[C@@H]4CC[C@H](O)[C@@]4(C)CC[C@@H]3[C@@]2(C)CC1`, the TGI is 35.1 µM in assay [10]; 86 µM in assay [1]; 44.4 µM in assay [2]; 45.9 µM in assay [3]; 34.9 µM in assay [4]; above 66.8 µM in assay [5]. Moreover, the TGI in assay [6] is 30.2 µM; in [7], above 65.2 µM; in assay [8] it was 54.1 µM; in [9], 40.9 µM.
With `O=c1cc(-c2cccc(OC(F)(F)F)c2)[nH]c2cc3c(cc12)OCO3`, the TGI in [10] is above 100 µM; in [1], above 100 µM; in [3] it was above 100 µM; in [4] it was above 32.2 µM; in assay [5], above 100 µM; in assay [6], above 100 µM. The TGI in assay [7] was above 100 µM; in [8] it was 4.9 µM; in assay [9], above 100 µM.
With `COc1ccc(CN(CCc2c[nH]c3ccccc23)Cc2ccc(OC)cc2)cc1`, the TGI was above 80.4 µM in assay [10]; above 100 µM in [1]; 32.9 µM in assay [3]; above 30.2 µM in [5]; 14.3 µM in assay [6]; above 31.7 µM in [7]. Also, the figures for the TGI in assay [8], in [9] and in assay [11] were 63 µM, 17.8 µM and 12.7 µM, respectively.
As for `CC1OC(O[C@H]2CC[C@]3(C)[C@H]4CC=C5[C@@H]6[C@@H](C)[C@H](C)CC[C@]6(C(=O)O)CC[C@@]5(C(=O)O)[C@]4(C)CC[C@H]3C2(C)C)C(O)C(O)C1O` (some centres undefined), the TGI in assay [1], in [2], in assay [3], in assay [4], in assay [5] and in assay [6] was above 75 µM in each case. Further, the TGI in [8], in [9] and in [11] was above 75 µM each time.
As to `CC1[C@@H](OCc2ccccc2)COC(=O)N1Cc1ccccc1` (some centres undefined), the TGI in assay [10], in assay [1], in [2], in [3], in [4] and in assay [6] was above 100 µM throughout. Further, the TGI in [7], in [8], in [9] and in [11] was above 100 µM in each case.
As for `CCCCc1c2c(nc3c1CCC/C3=C\c1ccccc1)C(=O)C(CN(C)C)CC2` (centres undefined), the TGI was 28.3 µM in [10]; 15.7 µM in assay [1]; 31.9 µM in assay [2]; 29.1 µM in assay [3]; 36.6 µM in assay [4]; 33.7 µM in assay [6]. Also, the TGI is 37.3 µM in [7], 70.8 µM in [8], 29.5 µM in assay [9] and 22.9 µM in assay [11].
Consider `Cc1ccc(S(=O)(=O)N2CCCCN(S(=O)(=O)c3ccc(C)cc3)Cc3ccccc3OCCOCCOc3c4cccc3Cc3cccc5c3OCCOCCOc3ccccc3CN(S(=O)(=O)c3ccc(C)cc3)CCCN(S(=O)(=O)c3ccc(C)cc3)Cc3ccccc3OCCOCCOc3c(cccc3C4)Cc3cccc(c3OCCOCCOc3ccccc3C2)C5)cc1`, for which the TGI in assay [1], in [2], in assay [3], in [4], in assay [5] and in assay [6] was above 100 µM throughout. The TGI in [7], in assay [8], in assay [9] and in [11] was above 100 µM throughout.
As for `COC(=O)[C@H](Cc1ccccc1)NC(=O)N1CCN(C(=O)N[C@@H](Cc2ccccc2)C(=O)OC)CCN(C(=O)N[C@@H](Cc2ccccc2)C(=O)OC)CC1`, the TGI in assay [10], in assay [1], in [3], in assay [4], in [5] and in assay [6] was above 100 µM throughout. Further, the TGI in assay [7], in assay [8], in assay [9] and in assay [11] was above 100 µM throughout.
Regarding `CCOC(=O)c1c(NC(=O)Nc2ccccc2)c(C(N)=O)c2n1CCCCC2`, the TGI in [10], in assay [1], in [2], in [3], in [4] and in [5] was above 100 µM in each case. Further, the TGI in assay [6], in assay [8], in [9] and in assay [11] was above 100 µM in each case.
With `CSc1cc(Cl)c(C)cc1S(=O)(=O)NC(=O)NNc1ccc(F)c(Cl)c1`, the TGI in assay [10], in assay [1], in assay [2], in assay [3], in assay [4] and in assay [5] was above 100 µM throughout. Moreover, the TGI in [7], in assay [8], in assay [9] and in assay [11] was above 100 µM throughout.
As for `C=CCOCn1ccc(=O)[nH]c1=O`, the TGI in assay [10], in assay [1], in [2], in assay [3], in assay [4] and in [5] was above 100 µM throughout. Also, the TGI in assay [6], in assay [7], in [8] and in assay [9] was above 100 µM throughout.
Consider `CC1N(C)C(=O)OC12CCN(CCCC(=O)c1ccc(F)cc1)CC2` (centres undefined), for which the TGI in [10], in assay [1], in assay [2], in assay [3], in [4] and in assay [5] was above 100 µM in each case. Also, the TGI in [6], in assay [7], in assay [8] and in assay [9] was above 100 µM each time.
Regarding `COC12C=CC(CC1)C1C(=O)c3c(C)c(C)n(C)c3C(=O)C12` (centres undefined), the TGI in assay [1], in [3], in assay [4], in assay [6], in assay [8] and in assay [9] was above 100 µM in each case.
In the case of `S=C(Nc1cccc(Cl)c1)Nc1ccccn1`, the TGI in assay [10], in [1], in assay [3], in assay [4], in [5] and in [6] was above 100 µM each time. The TGI in assay [7], in [8] and in assay [11] was above 100 µM each time.
Consider `CCOC(=O)c1nc2ccc(C(F)(F)F)cc2nc1Oc1ccc(F)cc1`, for which the TGI in assay [10], in assay [1], in assay [2], in assay [3], in assay [4] and in assay [5] was above 100 µM in each case. The TGI in assay [6], in assay [8], in [9] and in assay [11] was above 100 µM in each case.

The values are drawn from PubChem BioAssay (NCI).
